In a melting point compilation (Tetko et al.; mined from patent text by program, amines drawn as free bases though some values may be those of a salt):

| melting point | SMILES |
| --- | --- |
| 65 to 75 °C | COC(=O)c1cc(C2OC(=O)CC(C)O2)cnc1C1=NC(C)(C(C)C)C(=O)N1 (configuration not stated) |
| 211 to 214 °C | O=C(c1ccc(Nc2ccnc3cc(C(F)(F)F)ccc23)cc1)N1CCC(Sc2ccc(F)cc2)CC1 |
| 80 °C | O=C(OCCN1CCN(c2cccc(C(F)(F)F)c2)CC1)c1sccc1Nc1ccnc2cc(Cl)ccc12 |
| 120 to 122 °C | COc1ccc(-c2cc(F)c(F)cc2-c2ccc(S(N)(=O)=O)cc2)cc1C |
| 179 to 181 °C | O=C1NCCc2c1c1ccccc1n2CC1CCCC1 |
| 73 to 75 °C | CCC(CO)NC(=O)C(C)(C)c1ccc(-c2cccc(COC)c2)cc1 (configuration not stated) |
| 189 to 190 °C | CC1CC(NC(=O)C(F)(F)F)=NN1c1ccc(C(=O)C(F)(F)F)cc1 (configuration not stated) |
| 191 to 192 °C | CCN(CC)N(C(C)=O)c1nc2c(C)c3nc(N(C(C)=O)N(CC)CC)sc3cc2s1 |
| 55 °C | COC1CC(OC)(OC)C(=O)O1 (configuration not stated) |
| 102 to 104 °C | Oc1cc(F)ccc1Oc1ccc(-c2ccco2)cc1O |
| 154 to 157 °C | Cn1nc(C(O)c2ccccc2)nc1NCC(O)COc1cccc(CN2CCCCC2)c1 (configuration not stated) |
| 123 to 125 °C | CCCc1nnc2ccc(-c3ccccc3)nn12 |
| 113 to 115 °C | CCCCN1CC(C(=O)OC)N(S(=O)(=O)c2ccc(-c3ccc(Br)cc3)cc2)CC1=O (configuration not stated) |
| 70 to 71 °C | N#CSc1nccnc1Cl |
| 188 to 191 °C | CN1CCCCC(c2cccc(O)c2)C1=O (configuration not stated) |
| 48 to 51 °C | Cc1ccc([N+](=O)[O-])c(CO)c1C |
| 247 to 248 °C | CCc1nn(-c2ccccn2)c2[nH]c3cc(F)c(F)cc3c(=O)c12 |
| 205 to 207 °C | N=C(N)c1cccc(S(=O)(=O)c2ccc(OC[C@@H]3C[C@@H](CC(=O)O)C(=O)N3CCCc3ccccc3)cc2)c1 |
| 122 to 123 °C | COc1ccc(-c2ccccc2C(SCC(=O)c2ccccc2)C(OC(C)=O)C(N)=O)cc1 (configuration not stated) |
| 244 to 245 °C | O=C1NCCOc2c1sc1ccccc21 |
| 124 to 125 °C | Cc1ccc2ccc(C)c(O)c2c1 |
| 212 to 213 °C | O=C(c1ccccc1)N1CCC2OC2C1 (configuration not stated) |

| melting point | SMILES |
| --- | --- |
| 127 °C | CC1CCC(C(C)C)C(OC(=O)[C@@H](c2ccc(OCc3ccc4ccccc4n3)cc2)C2CCCCCC2)C1 (some centres not stated) |
| 223 to 225 °C | CCCCC(=O)Nc1ccc(Br)c(-n2nc(CC)n(Cc3ccc(-c4ccccc4S(N)(=O)=O)cc3F)c2=O)c1 |
| 143 °C | N=c1sc2cc(OC(F)(F)F)ccc2n1CCSc1ccncc1 |
| 156 to 158 °C | OC(CNc1cc(Cl)c(Cl)cc1Cl)Cn1ccnc1 (configuration not stated) |
| 281 to 283 °C | O=C(O)c1nc2ccc(Oc3ccccc3)cc2cc1OCc1ccccc1 |
| 151 to 152 °C | O=C(CBr)N[C@H](Cc1ccc(C(F)(F)F)cc1)[C@@H](O)c1ccc(F)cc1 (racemic) |
| 276 to 279 °C | C[C@H](Cn1ccnc1)NC(=O)c1c[nH]c2ncc(-c3nn(C)c4cc(Cl)ccc34)nc12 |
| 350 °C | CCOC(=O)c1cn(C)c2cnc3c(F)c(Cl)c(N4CCN(c5ccc(C)c(F)c5)CC4)cc3c2c1=O |
| 151 to 153 °C | CC1(C)CC1C(=O)NC(=CCCCCCBr)C(=O)O (configuration not stated) |
| 182 to 186 °C | CCOC(=O)c1cn(C2CC2)c2c(C)c(F)c(F)c(N)c2c1=O |
| 194 to 197 °C | CC1=NOC2C3CC(C12)C1C(=O)OC(=O)C31 (configuration not stated) |
| 128 to 132 °C | CC(C)(C)OC(=O)NC(Cc1ccccc1)C(O)CNCC(O)C(Cc1ccccc1)NC(=O)OC(C)(C)CCCNCc1ccccc1 (configuration not stated) |
| 89 to 91 °C | COc1ccc(S(=O)(=O)C2(C(=O)O)CCCC2)cc1 |
| 83 to 84.5 °C | CN1C(=O)Cc2ccccc21 |
| 153 to 154 °C | O=C(CCCCCCc1ccccc1)c1c(O)c2cccnc2n(-c2ccccc2)c1=O |
| 162 to 164 °C | CN1CCN(c2ncc(-c3cc(Cl)cc(Cl)c3Cl)c(N)n2)CC1 |
| 237 to 239 °C | NS(=O)(=O)c1ccc(-c2cnn(Cc3ccc(F)cc3)c(=O)c2-c2ccc(F)cc2)cc1 |
| 129 to 130 °C | COC(=O)C(Cc1c[nH]c2ccccc12)NC(=S)c1ccc2c(c1)OCO2 (configuration not stated) |
| 92 to 94 °C | Cc1c(C)c2ccc(OCCCN3CCC(N)CC3)cc2oc1=O |
| 149 to 151 °C | CC(C)(C)OC(=O)Nc1ccc(OC2CN(CC(c3ccccc3)c3ccccc3)C2)cc1 |
| 93 to 94 °C | CCCOc1cccc(C=C(C=O)C(C=O)=Cc2cccc(OCCC)c2)c1 |
| 108 to 109 °C | O=C(NCCO)c1cccc(-c2ccc3c(c2)N(c2cc(Cl)cc(Cl)c2)CC3)c1 |

| melting point | SMILES |
| --- | --- |
| 70.5 to 71.5 °C | C#Cc1cccc(OCC2=CC=C(CO)SS2)c1 |
| 109 to 110 °C | COC(=O)C1CC(C#N)(c2ccc(OC(F)F)c(OC3CCCC3)c2)CCC1=O (configuration not stated) |
| 72 °C | CCCCc1ccc(-c2nc(F)c(-c3ccc(OC)cc3)o2)cc1 |
| 109 to 110 °C | CCC(NC(C)=O)c1ccc(CN2CCN(c3ccccc3)CC2)cc1 (configuration not stated) |
| 168 to 170 °C | Cc1cc(-c2ccc(F)cc2)n(-c2ccc(S(N)(=O)=O)cc2)c1 |
| 78 to 79 °C | C[C@@](O)(C(=O)N1CCC(C(=O)c2ccc(F)cc2)CC1)C(F)(F)F |
| 93.5 °C | CCN(CC)C(=O)C(C)Cc1nc(-c2ccccc2)nc2ccccc12 (configuration not stated) |
| 160 to 163 °C | Cc1ccc(S(=O)(=O)OCCCCn2c3c(c4ccccc4c2=O)C(=O)c2ccccc2-3)cc1 |
| 123 to 130 °C | COC(=O)C(C)Nc1c([N+](=O)[O-])cnn1-c1c(Cl)cc(C(F)(F)F)cc1Cl (configuration not stated) |
| 311 to 313 °C | COc1ccc(S(=O)(=O)Nc2ccncc2)c2c1[nH]c1ccccc12 |
| 219 °C | Cc1cc(-c2c(-c3ccc(OCC(F)(F)F)c(C(F)(F)F)c3)nc3cncn3c2C(F)(F)F)ccn1 |
| 204 to 207 °C | N=C(Nc1ccc(Cl)cc1)Nc1ncccc1OCc1cccc(Cl)c1F |
| 132 °C | CC1(C)C=C(c2ccccn2)c2ccc(C#N)cc2OC1 |
| 169 to 171 °C | CCCc1nc(C(O)CCC)c(C)[nH]1 (configuration not stated) |
| 106 °C | CC(C)CCOc1ccc(S(=O)(=O)C2(C(=O)NO)CCN(Cc3ccccc3)CC2)cc1 |
| 211 to 215 °C | Cc1nn(-c2cncnc2)cc1N |
| 145 to 146 °C | O=C(O)[C@@H]1CCCN1C(=O)C1CCC1S (some centres not stated) |
| 78.4 °C | CCOCn1cc(C(C)C)c(=O)[nH]c1=O |
| 55.5 to 56 °C | CSCc1noc(C(C)c2ccc(-c3ccccc3)c(F)c2)n1 (configuration not stated) |
| 214 to 215 °C | CS(=O)(=O)c1ccc(C(=O)O)c(F)c1F |
| 110 to 113 °C | Cc1cc2c(cc1[N+](=O)[O-])C(=O)CC(C)O2 (configuration not stated) |

| SMILES | melting point |
| --- | --- |
| CC(=O)C1(Nc2ccccc2)CCN(C(C)C)CC1 | 107 °C |
| N#CC1(N2CCCCC2)CCCCC1 | 66 to 68 °C |
| Cc1nc2cc(NC(=O)c3cc4cc(F)ccc4n3Cc3cccc(F)c3)cnc2n1C | 274 to 275 °C |
| CCOC=Nc1c(S(C)=O)c(C#N)nn1-c1c(Cl)cc(C(F)(F)F)cc1Cl (configuration not stated) | 93 to 95 °C |
| NC(=O)c1cc(Cl)c([N+](=O)[O-])cc1[N+](=O)[O-] | 201 to 203 °C |
| Fc1ccc(Nc2ncnc3cnc(NCC45CCN(CC4)CC5)nc23)cc1Cl | 221 to 223 °C |
| Cc1n[nH]c2c1C[C@@H]1CN(C)CC[C@H]1C2 (relative stereo) | 160 to 162 °C |
